Measurements as given in patent US8263610B2, “Substituted imidazolyl-5,6-dihydrobenzo[N]isoquinoline compounds” (ArQule, Inc., priority 2008, dated 2012).
Counter-ions that a name gives are not always drawn.

How the values were obtained:
[1] = system: PACA-2 cells; assay: MTS assay, inhibition of cell growth; type: cell-based; conditions: compound at 10 μM, 72 hours
Protocol: (§1) MDA-MB-231, DLD-1, Kato III NCI-H1299, PACA-2 cells, were maintained at 37° C., 5% CO2 in DMEM media supplemented with 10% fetal bovine serum, penicillin/streptomycin and fungizone (Invitrogen). Cells were seeded into 96-well tissue culture plates at 3000 per well and cultured at 37° C. for 18 hours. Test compounds were dissolved and diluted to 300× in DMSO then further diluted 1:40 in DMEM before addition to cells (1:7.5 dilution). Cells were incubated with test compounds for 72 hours followed by incubation with tetrazolium compound (3-(4,5-dimethylthiazol-2-yl)-5-(3-carboxymethoxyphenyl)-2-(4-sulfophenyl)-2H-tetrazolium, inner salt; MTS) and the electron coupling reagent, phenazine methosulfate (PMS) for 4 hours. […] The ability of compounds to inhibit cell growth in this assay is correlated with the reduction of dehydrogenase enzyme activity found in metabolically active cells. The measurement of the absorbance of the formazan was assessed using an ENVISION™ (Perkin Elmer) microplate reader at 492 nm.

[2] = system: DLD-1 cells; assay: MTS assay, inhibition of cell growth; type: cell-based; conditions: Homo sapiens, compound at 10 μM, 72 hours
Protocol: as §1

[3] = system: MDA-MB-231 cells; assay: MTS assay, inhibition of cell growth; type: cell-based; conditions: Homo sapiens, compound at 10 μM, 72 hours
Protocol: as §1

[4] = system: Kato III cells; assay: MTS assay, inhibition of cell growth; type: cell-based; conditions: Homo sapiens, compound at 10 μM, 72 hours
Protocol: as §1

[5] = system: NCI-H1299 cells; assay: MTS assay, inhibition of cell growth; type: cell-based; conditions: Homo sapiens, compound at 10 μM, 72 hours
Protocol: as §1

melting point | SMILES | inhibition at 10 µM [1] [%] | inhibition at 10 µM [2] [%] | inhibition at 10 µM [3] [%] | inhibition at 10 µM [4] [%] | inhibition at 10 µM [5] [%]
 | O=C(NCC1CCCCC1)N1CCc2c(cnc3[nH]ncc23)C1 [N-(cyclohexylmethyl)-3,6,8,9-tetrahydro-7H-pyrazolo[3,4-c][2,7]naphthyridine-7-carboxamide] | 75 to 100 | 75 to 100 | 75 to 100 | 75 to 100 | 75 to 100
 | Cc1ccc(C)c(S(=O)(=O)NC2CCc3c(cnc4[nH]ncc34)C2)c1 (stereo not shown) [2,5-dimethyl-N-(6,7,8,9-tetrahydro-3H-pyrazolo[3,4-c]isoquinolin-7-yl)benzenesulfonamide] | 75 to 100 | 75 to 100 | 75 to 100 | 75 to 100 | 75 to 100
 | Nc1nc(N2CCc3c(cnc4[nH]ncc34)C2)c2cn[nH]c2n1 [4-(3,6,8,9-tetrahydro-7H-pyrazolo[3,4-c][2,7]naphthyridin-7-yl)-1H-pyrazolo[3,4-d]pyrimidin-6-amine] | 75 to 100 | 75 to 100 | 50 to 74 | 75 to 100 | 25 to 49
 | CN(C)c1ccc(NC(=O)N2CCc3c(cnc4[nH]ncc34)C2)cc1 [N-[4-(dimethylamino)phenyl]-3,6,8,9-tetrahydro-7H-pyrazolo[3,4-c][2,7]naphthyridine-7-carboxamide] | 75 to 100 | 75 to 100 | 75 to 100 | 75 to 100 | 75 to 100
 | O=C(Nc1cccc2ccccc12)NC1CCc2c(cnc3[nH]ncc23)C1 (stereo not shown) [1-(1-naphthyl)-3-(6,7,8,9-tetrahydro-3H-pyrazolo[3,4-c]isoquinolin-7-yl)urea] | 25 to 49 | 75 to 100 | 50 to 74 | 75 to 100 | 25 to 49
 | N[C@H](C(=O)N1CCc2c(cnc3[nH]ncc23)C1)c1ccccc1 [(1S)-2-oxo-1-phenyl-2-(3,6,8,9-tetrahydro-7H-pyrazolo[3,4-c][2,7]naphthyridin-7-yl)ethanamine] | 50 to 74 | < 24 | 50 to 74 |  | 
 | O=C(Nc1ccccc1)C1CCc2c(cnc3[nH]ncc23)C1 (stereo not shown) [drawing 584, N-phenyl-6,7,8,9-tetrahydro-3H-pyrazolo[3,4-c]isoquinoline-7-carboxamide] | < 24 | 50 to 74 | < 24 | 75 to 100 | 
 | COc1ccc2c(c1)-c1c(cnc3[nH]ncc13)CC2 [drawing 562, 10-methoxy-6,7-dihydro-3H-benzo[f]pyrazolo[3,4-c]isoquinoline] | < 24 | < 24 |  | 25 to 49 | 
 | Clc1ccc(C2Cc3cnc4[nH]ncc4c3-c3ccccc32)c(Cl)c1 (stereo not shown) [drawing 557, 7-(2,4-dichlorophenyl)-6,7-dihydro-3H-benzo[f]pyrazolo[3,4-c]isoquinoline] | < 24 | 50 to 74 |  | 50 to 74 | 25 to 49
 | O=C(Nc1ccccc1)NC1CCc2c(cnc3[nH]ncc23)C1 (stereo not shown) [drawing 560, 1-phenyl-3-(6,7,8,9-tetrahydro-3H-pyrazolo[3,4-c]isoquinolin-7-yl)urea] | < 24 | < 24 |  |  | 
 | Cc1nc(-c2cccc(NC(=O)N3CCc4c(cnc5[nH]nc(Br)c45)C3)c2)no1 [drawing 581, 1-bromo-N-[3-(5-methyl-1,2,4-oxadiazol-3-yl)phenyl]-3,6,8,9-tetrahydro-7H-pyrazolo[3,4-c][2,7]naphthyridine-7-carboxamide] | < 24 |  |  | < 24 | 
 | c1ccc(C2Cc3cnc4[nH]ncc4c3-c3ccccc32)cc1 (stereo not shown) [drawing 555, 7-phenyl-6,7-dihydro-3H-benzo[f]pyrazolo[3,4-c]isoquinoline] | < 24 | 25 to 49 | < 24 | 25 to 49 | 
 | Cc1cc(C)c2c(c1)-c1c(cnc3[nH]ncc13)CC2 [drawing 561, 8,10-dimethyl-6,7-dihydro-3H-benzo[f]pyrazolo[3,4-c]isoquinoline] | < 24 | 75 to 100 | 25 to 49 | 25 to 49 | 
 | c1ccc(CNC2CCc3c(cnc4[nH]ncc34)C2)cc1 (stereo not shown) [N-benzyl-6,7,8,9-tetrahydro-3H-pyrazolo[3,4-c]isoquinolin-7-amine] | < 24 | < 24 | < 24 |  | 
184 to 196 °C | CN(C)CCNC(=O)c1cccc(NC(=O)N2CCc3c(cnc4[nH]ncc34)C2)c1 (as salt: TFA) [Example 95, N-(3-(2-(dimethylamino)ethylcarbamoyl)phenyl)-8,9-dihydro-3H-pyrazolo[3,4-c][2,7]naphthyridine-7(6H)-carboxamide] |  |  |  |  | 
> 216 °C | O=C(Nc1ccccc1)NC1CCc2c(cnc3[nH]ncc23)C1 (stereo not shown) |  |  |  |  | 
> 145 °C | COc1ccc(Cn2ncc3c4c(cnc32)CN(c2ncnc3[nH]nc(C(=O)c5ccccc5)c23)CC4)cc1 [Example 434, (4-(3-(4-methoxybenzyl)-8,9-dihydro-3H-pyrazolo[3,4-c][2,7]naphthyridin-7(6H)-yl)-1H-pyrazolo[3,4-d]pyrimidin-3-yl)(phenyl)methanone] |  |  |  |  | 

melting point | SMILES | inhibition at 10 µM [1] [%] | inhibition at 10 µM [2] [%] | inhibition at 10 µM [3] [%] | inhibition at 10 µM [4] [%] | inhibition at 10 µM [5] [%]
200 to 202 °C | S=C(Nc1ccccc1)N1CCc2c(cnc3[nH]ncc23)C1 |  |  |  |  | 
> 164 °C | O=C(C(NCCc1c[nH]c2ccccc12)c1ccccc1)N1CCc2c(cnc3[nH]ncc23)C1 (stereo not shown) (as salt: TFA) [Example 84, N-(2-(1H-indol-3-yl)ethyl)-2-(8,9-dihydro-3H-pyrazolo[3,4-c][2,7]naphthyridin-7(6H)-yl)-2-oxo-1-phenylethanaminium 2,2,2-trifluoroacetate] |  |  |  |  | 
237 to 241 °C | O=C(O)c1cccc(NC(=O)N2CCc3c(cnc4[nH]ncc34)C2)c1 [Example 93b, 3-(6,7,8,9-tetrahydro-3H-pyrazolo[3,4-c][2,7]naphthyridine-7-carboxamido)benzoic acid] |  |  |  |  | 
245 °C (dec.) | CC(=O)Nc1cccc(-c2n[nH]c3ncc4c(c23)CCNC4)c1 (as salt: trifluoroacetate) [Example 456, 1-(3-acetamidophenyl)-6,7,8,9-tetrahydro-3H-pyrazolo[3,4-c][2,7]naphthyridin-7-ium 2,2,2-trifluoroacetate] |  |  |  |  | 
270 to 271 °C | O=S(=O)(c1ccccc1)N1CCc2c(cnc3[nH]ncc23)C1 |  |  |  |  | 
240 °C (dec.) | NC(=O)c1cccc(-c2n[nH]c3ncc4c(c23)CCNC4)c1 (as salt: trifluoroacetate) |  |  |  |  | 
265 °C (dec.) | Cl.c1ccc(-c2n[nH]c3ncc4c(c23)CCNC4)cc1 |  |  |  |  | 
300 to 302 °C | O=C(c1ccccc1)c1c[nH]c2ncnc(N3CCc4c(cnc5[nH]ncc45)C3)c12 (as salt: TFA) [Example 435, (4-(8,9-dihydro-3H-pyrazolo[3,4-c][2,7]naphthyridin-7(6H)-yl)-7H-pyrrolo[2,3-d]pyrimidin-5-yl)(phenyl)methanone] |  |  |  |  | 
 | CC(=O)Nc1cccc(-c2n[nH]c3ncc4c(c23)CCNC4)c1 [N-[3-(6,7,8,9-tetrahydro-3H-pyrazolo[3,4-c][2,7]naphthyridin-1-yl)phenyl]acetamide] |  | 50 to 74 | 25 to 49 | 75 to 100 | 
> 100 °C | N[C@H](C(=O)N1CCc2c(cnc3[nH]ncc23)C1)c1ccccc1.O=C(O)C(F)(F)F |  |  |  |  | 
105 to 107 °C | COc1ccc(CN2CCc3c(cnc4c3cnn4Cc3ccc(OC)cc3)C2)cc1 |  |  |  |  | 
152 to 155 °C | Cc1cc(C)c2c(c1)-c1c(cnc3[nH]ncc13)CC2 [Example 7, 8,10-dimethyl-6,7-dihydro-3H-benzo[f]pyrazolo[3,4-c]isoquinoline] |  |  |  |  | 
255 to 256 °C | COc1ccc(Cn2ncc3c4c(cnc32)CN(C(=N)N)CC4)cc1 [Example 474, 3-(4-methoxybenzyl)-8,9-dihydro-3H-pyrazolo[3,4-c][2,7]naphthyridine-7(6H)-carboximidamide] |  |  |  |  | 
 | O=C(NC[C@@H]1CCCO1)c1cccc(NC(=O)N2CCc3c(cnc4[nH]ncc34)C2)c1 [N-(3-{[(2S)-tetrahydrofuran-2-ylmethyl]carbamoyl}phenyl)-3,6,8,9-tetrahydro-7H-pyrazolo[3,4-c][2,7]naphthyridine-7-carboxamide] | 75 to 100 | 75 to 100 | 75 to 100 | 75 to 100 | 
214 to 217 °C | O=[N+]([O-])c1ccc2c(c1)-c1c(cnc3[nH]ncc13)CC2 [Example 14, 10-nitro-6,7-dihydro-3H-benzo[f]pyrazolo[3,4-c]isoquino line] |  |  |  |  | 
195 to 196 °C | Fc1ccc(C2Cc3cnc4[nH]ncc4c3-c3ccccc32)cc1F (stereo not shown) [Example 3, 7-(3,4-difluorophenyl)-6,7-dihydro-3H-benzo[f]pyrazolo[3,4-c]isoquinoline] |  |  |  |  | 
164 to 166 °C | O=C(Cc1ccccc1)N1CCc2c(cnc3[nH]ncc23)C1 [Example 476, 1-(8,9-dihydro-3H-pyrazolo[3,4-c][2,7]naphthyridin-7(6H)-yl)-2-phenylethanone] |  |  |  |  | 
